Experimental data from patent US20250241878A1, “TYROSINE AND RESVERATROL DERIVATIVES AS NOVEL MODULATORS OF CELLULAR SERINE ADP-RIBOSYLATION” (UNIVERSITY OF SOUTH CAROLINA, priority 2022, published 2025).

Tests used:
eIF2α = experiment: p-eIF2α Western blot in cortical neurons; format: cell-based, rat; conditions: compound alone
Procedure: Primary cortical neurons were dissected from E18 Sprague Dawley rat pups in Hibernate E (BrainBits®) and dissociated using the Neural Tissue Dissociation kit (Miltenyi Biotec). […] After washing and centrifugation, neurons were seeded in 50 μg/ml poly-D-Lysine (Sigma-Aldrich) coated tissue culture plates. NBActive-1 medium (BrainBits®) supplemented with 100 U/ml of Penicillin-Streptomycin (Life TechnologiesTM), 2 mM L-Glutamine (Life TechnologiesTM), and 1×[…] supplement (R&D SystemsTM) was used as culture medium. For preparation of culture medium containing reduced tyrosine, the components of NBActive-1 medium were altered to combined with a reduced concentration of tyrosine, as mentioned in Table 1, and was supplemented with 100 U/ml of Penicillin-Streptomycin (Life TechnologiesTM), 2 mM L-Glutamine (Life TechnologiesTM), and 1×[…] supplement (R&D SystemsTM) to obtained culture medium with reduced tyrosine. […] For PARP1 siRNA, neurons at 7 DIV were transfected with 75 nM siRNA for both control and PARP1 siRNA. […] The lysates were centrifuged at 10,000 RPM for 15 mins at 4° C. to separate the chromatin-bound and soluble fractions. Lysates were quantified using Bio-RadTM Protein Assay and equal amounts of protein were loaded onto a 4 to 12% gradient gel (InvitrogenTM NuPAGETM). […] Quantification of western blots was done using ImageJ (Version 1.53c).

γ-H2AX = γ-H2AX foci immunostaining in cortical neurons; format: cell-based, rat; conditions: for γ-H2AX (DNA damage marker): compound alone
Procedure: Cultured cortical neurons (DIV 9-10) were fixed in 4% formaldehyde for 15 min, followed by permeabilization and blocking for 30 min in 5% BSA (PBS) and 0.1% Tween™ 20 at room temperature. Incubation with primary antibodies was done at 4° C. overnight. The names and dilutions of the primary antibodies used for IF are described in Table 3. Secondary antibodies were incubated for 1 hr at room temperature. Secondary antibodies used were Alexa Fluor® 647 (anti-chicken), Alexa Fluor® 555 (anti-mouse), Alexa Fluor® 488 (anti-rabbit) from Invitrogen™ at 1:1000 dilution. Coverslips were then mounted using DAPI (4′,6-diamidino-2-phenylindole)-supplemented mounting medium, ProLong™ Gold Antifade (Invitrogen™) and imaged with Leica DMI6000 epifluorescent microscope using oil immersion 63×/NA 1.4 objective. The quantification for total protein levels in neurons was done using ImageJ (version 1.53c), and imaging parameters were matched for exposure, gain, and offset.

OGG1 = OGG1 levels Western blot in cortical neurons; format: cell-based, rat
Procedure: FIG. 4C presents primary cortical neurons treated with Tyr ([…]) for 8 hr, and OGG1 was detected by Western Blot analysis using anti-OGG1 antibody.
(§1) Cultured neurons (DIV 9-10) were washed once with cold 1×PBS and lysed in cell lysis buffer (20 mM Tris-HCl (pH 7.5), 150 mM NaCl, 1 mM Na2EDTA, 1 mM EGTA, 1% Triton™, 2.5 mM sodium pyrophosphate, 1 mM beta-glycerophosphate, 1 mM Na3VO4, 1 μg/ml leupeptin supplemented with protease inhibitor). The lysates were centrifuged at 10,000 RPM for 15 mins at 4° C. to separate the chromatin-bound and soluble fractions. Lysates were quantified using Bio-Rad™ Protein Assay and equal amounts of protein were loaded onto a 4 to 12% gradient gel (Invitrogen™ NuPAGE™). Protein was transferred from the gel to 0.2 μm NC membranes at 25 V for 10 mins using transfer stacks (iBlot™ 2-Invitrogen™) and blocked with 5% non-fat milk in TBST (10 mM Tris-HCl pH 8.0, 150 mM NaCl, 0.01% Tween-20) for 1 hr before application of primary antibodies. Primary and secondary antibodies were incubated overnight at 4° C. and for 1 hr at room temperature, respectively. Immobilon® ECL Ultra Western HRP Substrate (WBULS0500, Millipore™) and a luminescent image analyzer (ChemiDoc™ Imaging System, Bio-Rad™) were used to detect proteins. Quantification of western blots was done using ImageJ (Version 1.53c).

cleaved caspase-3 = experiment: Cleaved caspase-3 immunoblot; format: cell-based, rat; conditions: compound alone; trans-RSV at high concentration
Procedure: FIG. 17E presents immunoblots showing the levels of cleaved caspase-3 in rat cortical neurons (DIV 9/10) after the treatment with D-Tyr (2 mM) for 16 hr.

neuronal chromatin = experiment: Chromatin fraction immunoblots of cortical neurons; format: cell-based, rat; conditions: compound alone
Procedure: as §1

[1] = system: interaction of PARP1 with histone H3; experiment: PARP1 immunoprecipitation probed for H3; format: cell-based, rat
Procedure: FIG. 18A presents representative immunoblots and quantification of the interaction of H3 with PARP1. […] The interaction of PARP1 with H3 was determined using anti-H3 antibody.

cortical neurons = experiment: DNA fiber analysis (CIdU incorporation); format: cell-based, rat
Procedure: Molecular combing was performed using the FiberComb® Molecular Combing System (Genomic Vision) with a constant stretching factor of 2 kb/μm using […] coverslips (20×20 mm; Genomic Vision). […] The coverslips were then washed with PBS, followed by serial ethanol dehydration (70%-100%). Following two 1×PBS washes, the coverslips were blocked in 3% BSA/1×PBS for 30 min followed by incubation with α-BrdU (for CIdU) (BD [347,580]) (1:100) and ssDNA antibody (MilliporeTM MAB3034) (1:100), for 2 hr at 37° C. After three PBST washes, secondary antibody incubation was done using α-mouse Alexa Fluor® 594 and α-rat Alexa Fluor® 488 (1:500) for 1 hr at 37° C. Coverslips were washed three times with 1×PBST, dehydrated and mounted on slides with mounting media. The stained DNA fibers were visualized using a fluorescence microscope (EVOS FL, Thermo FisherTM Scientific). Analysis was performed in ImageJ by counting the total ssDNA and the CIdU labeled fibers. For each treatment condition, 300 fibers were counted, and the average ratio of CIdU incorporation for ssDNA fibers per condition was used for final representation.

PARP1 = conditions: previously observed; cited from earlier work
HPF1 = HPF1 levels immunoblot in cortical neurons; format: cell-based, rat; conditions: compound alone
Procedure: FIG. 5A presents immunoblots showing the protein levels of HPF1 in rat cortical neurons (DIV9-10) after treatment with Tyr ([…]) for up to 8 hr.
as §1

Oc1ccc(/C=C\c2cc(O)cc(O)c2)cc1 [cis-RSV, cis-resveratrol]
p-eIF2α levels (eIF2α): triggered a transient increase in the levels of p-eIF2α | γ-H2AX levels (γ-H2AX; added after 12 hr of tyrosine pretreatment): reduced γ-H2AX levels | effect on tyrosine-induced accumulation of γ-H2AX (γ-H2AX; combination with tyrosine): rescued tyrosine-induced accumulation of γ-H2AX and 8-oxo-dG | γ-H2AX levels after ETO-mediated DNA damage (γ-H2AX; with etoposide (ETO)): decreased levels of γ-H2AX | effect on tyrosine-mediated decrease of OGG1 levels (OGG1; combination with tyrosine): rescued | levels of cleaved caspase-3 (cleaved caspase-3): decreased the levels of caspase-3 cleavage | PARylated proteins in the chromatin fraction (neuronal chromatin): activated the de-ADP-ribosylation of the chromatin fraction | TyrRS in the chromatin fraction (neuronal chromatin): higher levels of TyrRS | association of PARP1 with the chromatin (neuronal chromatin): resulted in its removal from the chromatin | recruitment of ARH3 to the chromatin (neuronal chromatin): differential effects on the recruitment of ARH3 to the chromatin | recruitment of FEN1 to the chromatin (neuronal chromatin): decreased the recruitment of FEN1 | recruitment of PARP2, HPF1 and OGG1 to the chromatin (neuronal chromatin): facilitated the recruitment of PARP2 along with other DNA repair factors such as HPF1 and OGG1 to the chromatin | interaction of PARP1 with histone H3 ([1]; cis-RSV): prevented the interaction of PARP1 with histone H3 | reduction of CIdU incorporation compared to control (cortical neurons; after cis-RSV treatment): 15-20% | auto-PARylation of PARP1 (PARP1): stimulate the auto-PARylation

Oc1ccc(/C=C/c2cc(O)cc(O)c2)cc1 [trans-RSV, trans-resveratrol]
p-eIF2α levels (eIF2α): sustained the inhibition of eIF2α | γ-H2AX (DNA damage marker) (γ-H2AX): caused the accumulation of γ-H2AX and 8-oxo-dG | HPF1 levels (HPF1): decreased HPF1 levels | levels of cleaved caspase-3 (cleaved caspase-3): increased the levels of cleaved caspase-3 | PARylated proteins in the chromatin fraction (neuronal chromatin): increased the levels of PARylated proteins in the chromatin fraction | association of PARP1 with the chromatin (neuronal chromatin): increased the association of PARP1 with the chromatin | recruitment of ARH3 to the chromatin (neuronal chromatin): differential effects on the recruitment of ARH3 to the chromatin | recruitment of PARP2, HPF1 and OGG1 to the chromatin (neuronal chromatin): prevented their recruitment | interaction of PARP1 with histone H3 ([1]; higher concentrations (≥25 mM) of trans-RSV): increased it | interaction of PARP1 with histone H3 ([1]; low concentrations of trans-RSV): prevented the interaction of PARP1 with histone H3 | incorporation of nucleoside analog CIdU into DNA fibers (cortical neurons; compound alone): prevented the incorporation of the nucleoside analog CIdU into DNA fibers

N[C@@H](Cc1ccc(O)cc1)C(=O)O [tyrosine, L-tyrosine]
γ-H2AX (DNA damage marker) (γ-H2AX): accumulation of γ-H2AX foci | OGG1 levels (OGG1; compound alone): decreased 8-oxoguanine-DNA glycosylase (OGG1) levels | HPF1 levels (HPF1): decreased HPF1 levels | association of PARP1 with the chromatin (neuronal chromatin): trapping of PARP1 | auto-PARylation of PARP1 (PARP1): inhibits the auto-PARylation of PARP1
